The test has as its target T1, mouse VISTA (mVISTA) (Mus musculus, UniProt Q9D659).
T1 construct: expressed in transfected cells; host or cells: Human embryonic kidney 293T cells
T1 sequence (Q9D659 33-308): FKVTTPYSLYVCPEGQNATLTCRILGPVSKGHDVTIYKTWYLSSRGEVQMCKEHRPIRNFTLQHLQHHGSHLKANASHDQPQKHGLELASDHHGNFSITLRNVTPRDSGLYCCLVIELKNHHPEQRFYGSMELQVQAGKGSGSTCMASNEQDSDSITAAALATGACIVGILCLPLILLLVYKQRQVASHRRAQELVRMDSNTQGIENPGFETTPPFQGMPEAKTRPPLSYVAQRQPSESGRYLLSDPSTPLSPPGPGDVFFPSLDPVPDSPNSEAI
Put plainly: Cell-Based Binding High-Content Assay For mVISTA (HC CBA mVISTA). The settings on record: 293T cells expressing mouse VISTA, competition with biotinylated peptide (2 nM). Put shortly: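 293T cells expressing mouse VISTA, with compounds added either after seeding ("no wash") or before seeding and then washed out after 1 h. Biotinylated peptide 2 nM for 30 min at room temperature, then detection with Alexa 647–streptavidin. After fixation with Hoechst stain, plates were high-content imaged; IC50 from four-parameter logistic fit.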

Read-outs that look alike come from different tables or passages of the source. Positions of bridges follow the written chain, without caps; N, C: chain ends. Non-standard residues stand in square brackets, D forms with d. Residues, ends and D or L forms follow the SMILES beside them. Cit = NC(=O)NCCC[C@H](N)C(=O)O; Ahp(2) = CCCCC[C@H](N)C(=O)O; NMeNle = CCCC[C@H](NC)C(=O)O; NHexGly = CCCCCCNCC(=O)O; Nle = CCCC[C@H](N)C(=O)O

As usually defined, the IC50 is the concentration needed to halve the response being measured. Take `CCCCCCN1CC(=O)N[C@@H](Cc2ccc(O)cc2)C(=O)N[C@@H](CCCCC)C(=O)NCC(=O)N[C@@H](CCCNC(N)=O)C(=O)N[C@@H](CC(C)C)C(=O)N[C@@H](CCCCC)C(=O)N2CCC[C@H]2C(=O)N[C@@H](C(C)C)C(=O)N[C@@H](CO)C(=O)N[C@H](C(=O)NCC(N)=O)CSCC(=O)N[C@@H](Cc2ccccc2)C(=O)N[C@@H](Cc2ccc(O)cc2)C(=O)N[C@@H](CC(=O)O)C1=O` [Example 1064] ({CH2CO}-FYD[NHexGly]Y[Ahp(2)]G[Cit]L[Ahp(2)]PVSCG-NH2; thioether N-14): the IC50 (read-out: HC CBA mVISTA IC50) was determined as 9.3 nM.

Consider `CCCCCCN1CC(=O)N[C@@H](Cc2ccc(O)cc2)C(=O)N[C@@H](CCCC)C(=O)N[C@@H](CC(=O)O)C(=O)N[C@@H](CCCNC(=N)N)C(=O)N[C@@H](CC(C)C)C(=O)N[C@@H](CCCCC)C(=O)N2CCC[C@H]2C(=O)N[C@@H](C(C)C)C(=O)N[C@@H](C(C)C)C(=O)N[C@H](C(=O)NCC(=O)O)CSCC(=O)N[C@@H](Cc2ccccc2)C(=O)N[C@@H](Cc2ccc(O)cc2)C(=O)N[C@@H](CC(=O)O)C1=O` [Example 1065] ({CH2CO}-FYD[NHexGly]Y[Nle]DRL[Ahp(2)]PVVCG-OH; thioether N-14), for which, where the note is “read-out: HC CBA mVISTA IC50”, the IC50 came to 15.6 nM.

On to `CCCCCCN1CC(=O)N[C@@H](Cc2ccc(O)cc2)C(=O)N[C@@H](CC(C)C)C(=O)N[C@@H](CC(N)=O)C(=O)N[C@@H](CCCNC(=N)N)C(=O)N[C@@H](CC(C)C)C(=O)N[C@@H](CCCCC)C(=O)N2CCC[C@H]2C(=O)N[C@@H](C(C)C)C(=O)N[C@@H](C(C)C)C(=O)N[C@H](C(=O)NCC(=O)O)CSCC(=O)N[C@@H](Cc2ccccc2)C(=O)N[C@@H](Cc2ccc(O)cc2)C(=O)N[C@@H](CC(=O)O)C1=O` [Example 1066] ({CH2CO}-FYD[NHexGly]YLNRL[Ahp(2)]PVVCG-OH; thioether N-14), for which the IC50 (read-out: HC CBA mVISTA IC50) worked out at 2.4 nM. Take `CCCCCCN1CC(=O)N[C@@H](Cc2ccc(O)cc2)C(=O)N[C@@H](CCCC)C(=O)N[C@@H](CC(=O)O)C(=O)N[C@@H](CCCNC(=N)N)C(=O)N[C@@H](CC(C)C)C(=O)N[C@@H](CCCCC)C(=O)N2CCC[C@H]2C(=O)N[C@@H](C(C)C)C(=O)N[C@@H](Cc2c[nH]c3ccccc23)C(=O)N[C@H](C(=O)NCC(=O)O)CSCC(=O)N[C@@H](Cc2ccccc2)C(=O)N[C@@H](Cc2ccc(O)cc2)C(=O)N[C@@H](CC(=O)O)C1=O` [Example 1067] ({CH2CO}-FYD[NHexGly]Y[Nle]DRL[Ahp(2)]PVWCG-OH; thioether N-14): under “read-out: HC CBA mVISTA IC50”, the IC50 was found to be 28.9 nM. Regarding `CCCCCCN1CC(=O)N[C@@H](Cc2ccc(O)cc2)C(=O)N[C@@H](CC(C)C)C(=O)N[C@@H](CC(N)=O)C(=O)N[C@@H](CCCNC(=N)N)C(=O)N[C@@H](CC(C)C)C(=O)N[C@@H](CCCCC)C(=O)N2CCC[C@H]2C(=O)N[C@@H](C(C)C)C(=O)N[C@@H](Cc2c[nH]c3ccccc23)C(=O)N[C@H](C(=O)NCC(=O)O)CSCC(=O)N[C@@H](Cc2ccccc2)C(=O)N[C@@H](Cc2ccc(O)cc2)C(=O)N[C@@H](CC(=O)O)C1=O` [Example 1068] ({CH2CO}-FYD[NHexGly]YLNRL[Ahp(2)]PVWCG-OH; thioether N-14), the IC50 (read-out: HC CBA mVISTA IC50) was 39.4 nM.

`CCCCCCN1CC(=O)N[C@@H](Cc2ccc(O)cc2)C(=O)N[C@@H](CCCNC(=N)N)C(=O)N[C@@H](CC(N)=O)C(=O)N[C@@H](CCCNC(=N)N)C(=O)N[C@@H](CC(C)C)C(=O)N[C@@H](CCCCC)C(=O)N2CCC[C@H]2C(=O)N[C@@H](C(C)C)C(=O)N[C@@H](Cc2c[nH]c3ccccc23)C(=O)N[C@H](C(=O)NCC(=O)O)CSCC(=O)N[C@@H](Cc2ccccc2)C(=O)N[C@@H](Cc2ccc(O)cc2)C(=O)N[C@@H](CC(=O)O)C1=O` [Example 1069] ({CH2CO}-FYD[NHexGly]YRNRL[Ahp(2)]PVWCG-OH; thioether N-14): the IC50 (read-out: HC CBA mVISTA IC50) was determined as 48.3 nM. Turning to `CCCCCCN1CC(=O)N[C@@H](Cc2ccc(O)cc2)C(=O)N[C@@H](CCCC)C(=O)NCC(=O)N[C@@H](CCCNC(=N)N)C(=O)N[C@@H](CC(C)C)C(=O)N[C@@H](CCCCC)C(=O)N2CCC[C@H]2C(=O)N[C@@H](C(C)C)C(=O)N[C@@H](Cc2ccc(O)cc2)C(=O)N[C@H](C(=O)NCC(=O)O)CSCC(=O)N[C@@H](Cc2ccccc2)C(=O)N[C@@H](Cc2ccc(O)cc2)C(=O)N[C@@H](CC(=O)O)C1=O` [Example 1070] ({CH2CO}-FYD[NHexGly]Y[Nle]GRL[Ahp(2)]PVYCG-OH; thioether N-14), where the note is “read-out: HC CBA mVISTA IC50”, the IC50 was found to be 18.1 nM. As to `CCCCCCN1CC(=O)N[C@@H](Cc2ccc(O)cc2)C(=O)N[C@@H](CCCC)C(=O)N[C@@H](CC(=O)O)C(=O)N[C@@H](CCCNC(=N)N)C(=O)N[C@@H](CC(C)C)C(=O)N[C@@H](CCCCC)C(=O)N2CCC[C@H]2C(=O)N[C@@H](C(C)C)C(=O)N[C@@H](Cc2ccc(O)cc2)C(=O)N[C@H](C(=O)NCC(=O)O)CSCC(=O)N[C@@H](Cc2ccccc2)C(=O)N[C@@H](Cc2ccc(O)cc2)C(=O)N[C@@H](CC(=O)O)C1=O` [Example 1071] ({CH2CO}-FYD[NHexGly]Y[Nle]DRL[Ahp(2)]PVYCG-OH; thioether N-14), where the note is “read-out: HC CBA mVISTA IC50”, the IC50 was determined as 17.7 nM. Consider `CCCCCCN1CC(=O)N[C@@H](Cc2ccc(O)cc2)C(=O)N[C@@H](CC(C)C)C(=O)N[C@@H](CC(N)=O)C(=O)N[C@@H](CCCNC(=N)N)C(=O)N[C@@H](CC(C)C)C(=O)N[C@@H](CCCCC)C(=O)N2CCC[C@H]2C(=O)N[C@@H](C(C)C)C(=O)N[C@@H](C(C)C)C(=O)N[C@H](C(=O)N[C@@H](CO)C(=O)O)CSCC(=O)N[C@@H](Cc2ccccc2)C(=O)N[C@@H](Cc2ccc(O)cc2)C(=O)N[C@@H](CC(=O)O)C1=O` [Example 1072] ({CH2CO}-FYD[NHexGly]YLNRL[Ahp(2)]PVVCS-OH; thioether N-14), for which the concentration for half-maximal inhibition (IC50) (read-out: HC CBA mVISTA IC50) was 5.8 nM.

For the compound `CCCCCCN1CC(=O)N[C@@H](Cc2ccc(O)cc2)C(=O)N[C@@H](CCCC)C(=O)N[C@@H](CC(=O)O)C(=O)N[C@@H](CCCNC(=N)N)C(=O)N(C)[C@@H](CCCC)C(=O)N[C@@H](CCCCC)C(=O)N2CCC[C@H]2C(=O)N[C@@H](C(C)C)C(=O)N[C@@H](CC(=O)O)C(=O)N[C@H](C(=O)N[C@@H](CC(=O)O)C(N)=O)CSCC(=O)N[C@@H](Cc2ccccc2)C(=O)N[C@@H](Cc2ccc(O)cc2)C(=O)N[C@@H](CC(=O)O)C1=O` [Example 1073] ({CH2CO}-FYD[NHexGly]Y[Nle]DR[NMeNle][Ahp(2)]PVDCD-NH2; thioether N-14), the IC50 (read-out: CBA mVISTA IC50) turned out to be 6.6 nM.

As to `CCCCCCN1CC(=O)N[C@@H](Cc2ccc(O)cc2)C(=O)N[C@@H](CCCCC)C(=O)N[C@@H](CC(=O)O)C(=O)N[C@@H](CCCNC(=N)N)C(=O)N(C)[C@@H](CCCC)C(=O)N[C@@H](CCCCC)C(=O)N2CCC[C@H]2C(=O)N[C@@H](C(C)C)C(=O)N[C@@H](CC(=O)O)C(=O)N[C@H](C(=O)N[C@@H](CC(=O)O)C(N)=O)CSCC(=O)N[C@@H](Cc2ccccc2)C(=O)N[C@@H](Cc2ccc(O)cc2)C(=O)N[C@@H](CC(=O)O)C1=O` [Example 1074] ({CH2CO}-FYD[NHexGly]Y[Ahp(2)]DR[NMeNle][Ahp(2)]PVDCD-NH2; thioether N-14), the IC50 (read-out: CBA mVISTA IC50) stood at 9.7 nM.

On to `CCCCCCN1CC(=O)N[C@@H](Cc2ccc(O)cc2)C(=O)N[C@@H](CCCC)C(=O)N[C@@H](CC(=O)O)C(=O)N[C@@H](CCCNC(=N)N)C(=O)N(C)[C@@H](CCCC)C(=O)N[C@@H](CCCCC)C(=O)N2CCC[C@H]2C(=O)N[C@@H](C(C)C)C(=O)N[C@@H](CC(=O)O)C(=O)N[C@H](C(=O)N[C@H](CC(=O)O)C(N)=O)CSCC(=O)N[C@@H](Cc2ccccc2)C(=O)N[C@@H](Cc2ccc(O)cc2)C(=O)N[C@@H](CC(=O)O)C1=O` [Example 1075] ({CH2CO}-FYD[NHexGly]Y[Nle]DR[NMeNle][Ahp(2)]PVDC[dD]-NH2; thioether N-14), for which the IC50 (read-out: CBA mVISTA IC50) was found to be 19.1 nM. For the compound `CCCCCCN1CC(=O)N[C@@H](Cc2ccc(O)cc2)C(=O)N[C@@H](CCCCC)C(=O)N[C@@H](CC(=O)O)C(=O)N[C@@H](CCCNC(=N)N)C(=O)N(C)[C@@H](CCCC)C(=O)N[C@@H](CCCCC)C(=O)N2CCC[C@H]2C(=O)N[C@@H](C(C)C)C(=O)N[C@@H](CC(=O)O)C(=O)N[C@H](C(=O)N[C@H](CC(=O)O)C(N)=O)CSCC(=O)N[C@@H](Cc2ccccc2)C(=O)N[C@@H](Cc2ccc(O)cc2)C(=O)N[C@@H](CC(=O)O)C1=O` [Example 1076] ({CH2CO}-FYD[NHexGly]Y[Ahp(2)]DR[NMeNle][Ahp(2)]PVDC[dD]-NH2; thioether N-14), where the note is “read-out: CBA mVISTA IC50”, the IC50 turned out to be 21.5 nM.

For the compound `CCCCCCN1CC(=O)N[C@@H](Cc2ccc(O)cc2)C(=O)N[C@@H](CCCCC)C(=O)N[C@@H](CC(=O)O)C(=O)N[C@@H](CCCNC(=N)N)C(=O)N(C)[C@@H](CCCC)C(=O)N[C@@H](CCCCC)C(=O)N2CCC[C@H]2C(=O)N[C@@H](C(C)C)C(=O)N[C@@H](CC(=O)O)C(=O)N[C@H](C(=O)N[C@@H](CCC(=O)O)C(N)=O)CSCC(=O)N[C@@H](Cc2ccccc2)C(=O)N[C@@H](Cc2ccc(O)cc2)C(=O)N[C@@H](CC(=O)O)C1=O` [Example 1077] ({CH2CO}-FYD[NHexGly]Y[Ahp(2)]DR[NMeNle][Ahp(2)]PVDCE-NH2; thioether N-14), for the setting “read-out: CBA mVISTA IC50”, the IC50 worked out at 14.7 nM. Still for that read-out and setting: under `CCCCCCN1CC(=O)N[C@@H](Cc2ccc(O)cc2)C(=O)N[C@@H](CCCC)C(=O)N[C@@H](CC(=O)O)C(=O)N[C@@H](CCCNC(=N)N)C(=O)N(C)[C@@H](CCCC)C(=O)N[C@@H](CCCCC)C(=O)N2CCC[C@H]2C(=O)N[C@@H](C(C)C)C(=O)N[C@@H](CC(=O)O)C(=O)N[C@H](C(=O)N[C@@H](CCC(=O)O)C(N)=O)CSCC(=O)N[C@@H](Cc2ccccc2)C(=O)N[C@@H](Cc2ccc(O)cc2)C(=O)N[C@@H](CC(=O)O)C1=O` [Example 1078] ({CH2CO}-FYD[NHexGly]Y[Nle]DR[NMeNle][Ahp(2)]PVDCE-NH2; thioether N-14) stands 17.7 nM.

The values are drawn from US20240218022A1, “ANTI-VISTA MACROCYCLIC PEPTIDES AND COMPOSITIONS” (BRISTOL-MYERS SQUIBB COMPANY, priority 2022, published 2024).
